Results: PMC11768771, “Identification of a New Pentafluorosulfanyl-Substituted Chalcone with Activity Against Hepatoma and Human Parasites” (Pharmaceuticals, 2025)
“Also recorded” adds a separate entry of the source. Read-outs that look alike come from different tables or passages of the source.

What was measured:
[1] = tested on: T. gondii tachyzoites (RH strain); test: Toxoplasma gondii testing assay; type: cell-based; details: for IC50: Toxoplasma gondii, T. gondii parasites cultivated in Vero cells; for SI selectivity index (Vero/T. gondii): ratio Vero IC50 / T. gondii IC50
Procedure: Cells of the Vero cell line (ATCC® CCL81™, Manassas, VA, USA) were used to cultivate T. gondii tachyzoites (RH strain, a gift from Dr. Saeed El-Ashram, State Key Laboratory for Agrobiotechnology, China Agricultural University, Beijing, China). Effects of test compounds on T. gondii growth were investigated as published previously and expressed as IC50 values, which were calculated from three independent experiments [63, 89].

HuH-7 [2] = test: Antiproliferative activity, crystal violet assay; type: cell-based; details: Homo sapiens, Huh-7, 48 h, mean ± SD
Procedure: (§3) Human hepatocellular carcinoma cell lines HepG2 (ATCC number: HB-8065) and HuH-7 (JCRB number: JCRB0403) were cultured at Roswell Park Memorial Institute (RPMI) 1640 Medium (Gibco, Thermo Fisher Scientific, Waltham, MA, USA) supplemented with 10% fetal bovine serum, 2 mM L-glutamine (Corning, Glendale, CA, USA), 100 U/mL penicillin and 100 µg/mL streptomycin (Bio&SELL, Feucht, Germany) at 37 °C, 5% CO2 in a humidified atmosphere in an incubator.
(§4) Treatment-induced antiproliferative effects measured as a decrease in cell number were assessed by crystal violet (N-hexamethylpararosaniline from Sigma-Aldrich, Darmstadt, Germany) staining as described before [71, 88]. In brief, HepG2 and HuH-7 cells were seeded in 96-well plates and allowed to adhere to the bottom of the wells and grow for 72 h in an incubator (37 °C, 5% CO2, humidified atmosphere). Afterwards, the cells were treated with rising concentrations of the chalcones, sorafenib and 17-AAG. After 24 h, 48 h and 72 h, respectively, the cells were fixed using 1% glutaraldehyde and stained for 30 min with 0.1% crystal violet. The excess unbound dye was removed by rinsing with water for 30 min. Cells were then lysed by incubation with 0.2% Triton X-100 (Sigma-Aldrich, Darmstadt, Germany) overnight dissolving the bound dye. The extinction of crystal violet was measured at 570 nm using ELISA readers (Dynex Technologies, Denkendorf, Germany; GloMax® Discover Microplate Reader Promega, Madison, WI, USA). IC50 values are given as means ± SD of a minimum of three independent experiments performed in triplicates and more.

murine macrophages = test: Macrophage cytotoxicity (MTT assay); type: cell-based; details: Mus musculus
Procedure: (§5) Cytotoxicity to Vero cells or murine macrophages was evaluated using the MTT assay according to previously published articles and expressed as IC50 values which were determined from three independent experiments [63, 91].

L. major promastigotes = test: Leishmania major testing assay, promastigotes; type: cell-based; details: for SI (Promastigotes) selectivity index (macrophages/L. major): ratio macrophages IC50 / promastigotes IC50
Procedure: (§6) Promastigotes (obtained from a patient in 2016) and amastigotes of L. major were applied for drug testing according to previously published methods [63, 90]. IC50 values were calculated from three independent experiments.

Vero monkey kidney cells = test: Vero cell cytotoxicity (MTT assay); type: cell-based; details: Primates
Procedure: as §5

HepG2 [3] = test: Antiproliferative activity, crystal violet assay; type: cell-based; details: Homo sapiens, HepG2, 48 h, mean ± SD
Procedure: as §3, §4

L. major amastigotes = test: Leishmania major testing assay, amastigotes; type: cell-based; details: for IC50: Leishmania major; for SI (Amastigotes) selectivity index (macrophages/L. major): ratio macrophages IC50 / amastigotes IC50
Procedure: as §6

HuH-7 [4] = test: Colony formation assay; type: cell-based, Human; details: HuH-7, 14 days of growth under treatment
Procedure: (§7) Long-term effects of drug treatment on proliferation and clonogenicity were assessed by colony formation assays. HCC cell lines were seeded at 1000 cells/well (HepG2) and 200 cells/well (HuH-7) in 6-well plates and allowed to adhere overnight. […] Untreated cells served as controls. After 14 d, the cells were washed with PBS, fixed with 4% formaldehyde for 1 h and stained with 0.5% crystal violet for 3 min. Excess crystal violet dye was removed by gently rinsing with water. Representative images were taken and stained colonies were counted. A colony was defined as a cell aggregate of 50 or more cells. n = 4 independent experiments were performed and significance was tested by one-way ANOVA assays.

HepG2 [5] = test: Colony formation assay; type: cell-based, Human; details: HepG2, 14 days of growth under treatment
Procedure: as §7

HuH-7 [6] = test: Lactate dehydrogenase (LDH) assay, unspecific cytotoxicity; type: cell-based, Human; details: HuH-7, 1, 5 and 10 µM, 6 h and 24 h, vs untreated controls
Procedure: (§1) To exclude unspecific compound-induced cytotoxicity as the predominant mode of action a lactate dehydrogenase (LDH) assay was performed using the Cytotoxicity Detection Kit^PLUS LDH (Roche Diagnostics GmbH, Mannheim, Germany, Cat. No. 4744934001) as described earlier. In short, HCC cells were seeded in 96-well plates at 8 × 10^3 cells/well (HepG2) and 10 × 10^3 cells/well (HuH-7). Following incubation overnight, the cells were treated with 246TMP-3SF5 and 17-AAG at final concentrations of 1 µM, 5 µM and 10 µM, respectively, for 6 h and 24 h. The formation of the red-brownish formazan dye, which is formed proportionally to the LDH enzyme activity in the sample, was measured at 490/600 nm using the GloMax® Discover Microplate Reader (Promega, Madison, WI, USA). Unspecific cytotoxicity was determined by measuring the percentage of LDH release into the supernatant of treated cells compared to untreated controls. Measurements were performed in triplicate in n = 3 independent experiments and mean percentage changes ± SEM as compared to controls are shown.

HepG2 [7] = test: as above; type: cell-based, Human; details: HepG2, 1, 5 and 10 µM, 6 h and 24 h, vs untreated controls
Procedure: as §1

Hsp70 in HepG2 cells = test: Western blot analysis of Hsp70 expression; type: cell-based, Human; details: HepG2, 24 h treatment
Procedure: (§2) Changes in the level of protein expression were assessed through Western blotting. HepG2 and HuH-7 cells were seeded at a density of 1 × 10^6 cells/well in 100 mm petri dishes and incubated until the desired confluency. Drugs were added at given concentrations for 24 h. Untreated cells served as controls. After washing with PBS, the cells were frozen at −20 °C. Subsequently, radioimmunoprecipitation assay (RIPA) buffer mixed with one cOmplete™ Mini Protease Inhibitor tablet/10 mL (Roche Diagnostics GmbH, Mannheim, Germany) was added to lyse the cells. Following these steps, the protein levels were analyzed using the Pierce™ BCA Protein Assay Kit (Thermo Fisher Scientific, Waltham, USA) and protein levels were normalized to ensure equal protein loading of 20 µg/lane. Laemmli buffer and β-mercaptoethanol were added to the probes following denaturation at 96 °C for 10 min. Proteins were separated using SDS–PAGE and electro-transferred to polyvinylidene difluoride (PVDF) membranes. Membranes were blocked in 5% non-fat dry milk in Tris-buffered saline with 0.1% Tween-20 and incubated with primary antibody overnight at 4 °C. […] Blots of n = 3 independent experiments were generated. β-Actin expression served as a loading control and calculated values were normalized to its expression.

Hsp70 in HuH-7 cells = test: Western blot analysis of Hsp70 expression; type: cell-based, Human; details: HuH-7, 24 h treatment
Procedure: as §2

Hsp90 in HuH-7 cells = test: Western blot analysis of Hsp90 expression; type: cell-based, Human; details: HuH-7, 24 h treatment
Procedure: as §2

Hsp90 in HepG2 cells = test: Western blot analysis of Hsp90 expression; type: cell-based, Human; details: HepG2, 24 h treatment
Procedure: as §2

[8] = tested on: T. gondii tachyzoites (RH strain); set-up: method as in PMID 34174635; details: positive control; cited from earlier work

IC50 (HuH-7 [2]) [µM]	IC50 (L. major promastigotes; Leishmania major) [µM]	IC50 (HepG2 [3]) [µM]	IC50 (L. major amastigotes) [µM]	IC50 (L. major promastigotes) [µM]	Structure (SMILES)	IC50 [1] [µM]	SI selectivity index (Vero/T. gondii) [1]	IC50 (murine macrophages) [µM]	SI (Promastigotes) selectivity index (macrophages/L. major) (L. major promastigotes)	IC50 (Vero monkey kidney cells) [µM]	SI (Amastigotes) selectivity index (macrophages/L. major) (L. major amastigotes)	Colony formation (long-term antiproliferative effect, clonogenicity) (HuH-7 [4])	Colony formation (long-term antiproliferative effect, clonogenicity) (HepG2 [5])	LDH release (non-specific toxicity) (HuH-7 [6])	LDH release (non-specific toxicity) (HepG2 [7])	Hsp70 protein expression level (Hsp70 in HepG2 cells)	Hsp70 protein expression level (Hsp70 in HuH-7 cells)	Hsp90 protein expression level (Hsp90 in HuH-7 cells)	Hsp90 protein expression level (Hsp90 in HepG2 cells)	IC50 [8] [µM]
> 10	1.8	> 10	33.7	–	COc1ccccc1C(=O)/C=C/c1c2ccccc2cc2ccccc12 [2MeO-Anth]	9.8	2.3	48.8	26.6	22.8	1.5	–	–	–	–	–	–	–	–	–
0.4 ± 0.4	–	1.6 ± 0.5	–	–	C=CCNC1=C2C[C@@H](C)C[C@H](OC)[C@H](O)[C@@H](C)/C=C(\C)[C@H](OC(N)=O)[C@@H](OC)/C=C\C=C(/C)C(=O)NC(=CC1=O)C2=O [17-AAG]	–	–	–	–	–	–	inhibited colony formation significantly; also recorded: close to no colonies formed	inhibited colony formation significantly; also recorded: close to no colonies formed	–	–	–	–	–	–	–
> 10	< 1	> 10	28.4	0.86	COc1ccc(C(=O)/C=C/c2cccc([N+](=O)[O-])c2)c(OC)c1 [24DMP-3NO]	2.2	2.4	25.2	29.3	5.4	0.89	–	–	–	–	–	–	–	–	–
> 10	2.2	> 10	28	–	COc1ccc(C(=O)/C=C/c2c3ccccc3cc3ccccc23)c(OC)c1 [24DMP-Anth]	7.6	2.9	48.3	22.3	22.3	1.7	–	–	–	–	–	–	–	–	–
2.2 ± 0.3	9.2	1.3 ± 0.2	20.3	–	COc1cc(OC)c(C(=O)/C=C/c2cccc(S(F)(F)(F)(F)F)c2)c(OC)c1 [246TMP-3SF5, 2′,4′,6′-trimethoxy-3-pentafluorosulfanylchalcone]	0.42	2.8	32.1	3.5	1.2	1.6	dose-dependent decrease in colonies formed; also recorded: close to no colonies formed	dose-dependent decrease in colonies formed; also recorded: close to no colonies formed	does not significantly increase LDH release	does not significantly increase LDH release	drastically increased	drastically increased	almost no changes	almost no changes	–
> 10	< 1	> 10	18.8	0.73	COc1cc(OC)c(C(=O)/C=C/c2c3ccccc3cc3ccccc23)c(OC)c1 [246TMP-Anth, 2′,4′,6′-trimethoxy-9-anthracenylchalcone]	5.8	3.4	15.8	21.7	19.6	0.84	–	–	–	–	–	–	–	–	–
–	–	–	–	–	O=C1C(O)=C([C@H]2CC[C@H](c3ccc(Cl)cc3)CC2)C(=O)c2ccccc21 [ATO]	–	–	–	–	–	–	–	–	–	–	–	–	–	–	0.07
5.4 ± 0.6	–	4.4 ± 1	–	–	CNC(=O)c1cc(Oc2ccc(NC(=O)Nc3ccc(Cl)c(C(F)(F)F)c3)cc2)ccn1 [Sorafenib, reference compound]	–	–	–	–	–	–	colony count did not differ much from the untreated controls	colony count did not differ much from the untreated controls	–	–	–	–	–	–	–
